Experimental data taken from the NIST ThermoML archive (doi:10.1016/j.jct.2014.01.020).

Assay: molar heat capacity at constant pressure; xn = mol fraction of the nth substance listed
Settings: Liquid, Flow calorimetry

C1CCCCC1 [cyclohexane] + CCCCO
molar heat capacity at constant pressure [J/K/mol]
Settings | x2 = 0 | x2 = 0.1013 | x2 = 0.2003 | x2 = 0.3002 | x2 = 0.4013 | x2 = 0.4997 | x2 = 0.6002 | x2 = 0.6999 | x2 = 0.7998 | x2 = 0.8999
293.15 K, 100 kPa | 154.7 | 164.6 | 166.7 | 168.6 | 170.9 | 171.2 | 171.4 | 172.1 | 172.2 | 172.8
293.15 K, 5000 kPa | 153.8 | 163.3 | 165.3 | 167.1 | 169.5 | 169.7 | 170.2 | 170.6 | 171 | 171.9
293.15 K, 10000 kPa | 152.5 | 161.2 | 163.5 | 165.4 | 167.7 | 168.2 | 168.6 | 169.4 | 169.5 | 170.4
293.15 K, 15000 kPa | 150.5 | 159.1 | 161 | 163.4 | 165.5 | 165.9 | 166.3 | 168 | 168.3 | 169.1
293.15 K, 20000 kPa | 149.7 | 157.5 | 159.3 | 161.7 | 164.4 | 164.9 | 164.8 | 167.1 | 167.1 | 167.7
293.15 K, 25000 kPa | 147.7 | 155.9 | 157.8 | 160.3 | 162.8 | 163.1 | 163.4 | 165.6 | 166 | 166.6
313.15 K, 100 kPa | – | 179.7 | 182.8 | 185.3 | 187.8 | 188.1 | 189.4 | 191.3 | 191.4 | 191.1
313.15 K, 5000 kPa | – | 177.4 | 180.4 | 183.2 | 186.1 | 186.5 | 187.4 | 189.1 | 189.9 | 189.3
313.15 K, 10000 kPa | – | 175.2 | 178.8 | 181.1 | 183.7 | 184.5 | 185.4 | 187.4 | 188.9 | 187.3
313.15 K, 15000 kPa | – | 172.9 | 175.8 | 178.9 | 181.6 | 182.7 | 183.8 | 185.5 | 187.2 | 186.5
313.15 K, 20000 kPa | – | 170.5 | 173.8 | 177 | 180.4 | 180.7 | 181.4 | 184.3 | 185.4 | 184.6
313.15 K, 25000 kPa | 154.6 | 168.7 | 171.6 | 175 | 177.8 | 179.3 | 179.7 | 182.3 | 183.9 | 183.1
